The subject of experiment [1] is Mus musculus. The experiment in a line: Effective dose required for analgesic potency in the hotplate procedure after sc injection into mice. In kind it is functional.
The target of experiment [2] is Opioid receptors; mu/kappa/delta (Homo sapiens, UniProt P41145+P41143+P35372). Nature of the experiment: Ability to displace [3H]etorphine from Opioid receptors in guinea pig brain. More on the design: species or system Cavia porcellus.

Results on 5 compounds are retold here after ChEMBL document CHEMBL1121937, “Stereochemical studies on medicinal agents. 25. Absolute configuration and analgetic potency of beta-1,2-dimethyl-2-phenyl-4-(propionyloxy)piperidine enantiomers” (J Med Chem, 1982).

Structures are written as SMILES.

One may read the ED50 as the dose that gives a 50% effect, or the effect in half of the subjects. Read a low ED50 as greater potency. One may read the IC50 as the concentration that inhibits the measured activity by half. The compound `CCC(=O)O[C@]1(c2ccccc2)CCN(C)[C@@H](C)C1` returned an ED50 in experiment [1] of 0.53 mg/kg. In experiment [2], this compound returned an IC50 of 1200 nM.

Compound `CCC(=O)OC1(c2ccccc2)CCN(C)C(C)C1` (racemic) displayed an ED50 in experiment [1] of 0.52 mg/kg. The same compound yielded an IC50 in experiment [2] of 2000 nM. The compound `CCC(=O)O[C@@]1(c2ccccc2)CCN(C)C(C)C1` (single isomer, unassigned; (+)) yielded an ED50 in experiment [1] of 5.5 mg/kg. Moreover, in experiment [2], the IC50 was determined as 11000 nM. `CCOC(=O)C1(c2ccccc2)CCN(C)CC1` [MEPERIDINE]: the ED50 in experiment [1] stood at 1.3 mg/kg. Still for that read-out and setting: next, `CN1CC[C@]23c4c5ccc(O)c4O[C@H]2[C@@H](O)C=C[C@H]3[C@H]1C5` [MORPHINE]: 1.2 mg/kg.
